16 compounds from patent publication US9783505B2, “Substituted diaminopyrimidyl compounds, compositions thereof, and methods of treatment therewith” (Signal Pharmaceuticals, LLC, priority 2013, dated 2017) can be followed below.

One experiment has as its target T1, His-PKC-theta (Homo sapiens, UniProt Q04759).
T1 construct: His; purchased Invitrogen
As to the kind of experiment: PKC-theta Assay (384-well time resolved fluorescence, IMAP TR-FRET). The format is biochemical. To be noted: read-out: Act. Level (IC50 in the PKC-theta Assay). The essentials:
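Enzyme at 142 pM phosphorylated 200 nM Fam-S6 peptide with 10 μM ATP in 50 mM HEPES pH 7.6, 10 mM MgCl2, 1 mM DTT for 2 h at room temperature. Product was detected after overnight incubation with IMAP binding reagent and Tb donor by time-resolved FRET.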

The target in another experiment is T2, PKC delta (Homo sapiens, UniProt Q05655).
T2 construct: purchased Invitrogen
Briefly: PKC delta Assay (384-well time resolved fluorescence, IMAP TR-FRET). It is filed as biochemical. The settings on record: selectivity for PKC-theta over PKC-delta. On the procedure: PKC delta Assay. A 384-well time resolved fluorescence assay was used to monitor PKC delta activity. The PKC delta assay was run in the following assay buffer: 50 mM HEPES pH 7.6, 10 mM MgCl2, 1 mM DTT, 0.01% Triton X-100, 0.01% BSA and 0.1 mM EDTA. To initiate the reaction, 200 nM of Fam-labeled S6-derived peptide (Molecular Devices) and 10 μM of ATP were mixed with 1.5 nM of PKC delta (Invitrogen), for a total assay volume of 25 μL in each well. The assay was incubated at room temperature for 2 hours and terminated using a 60 μL/well mixture of Detection Binding Solution: 70% IMAP Progressive Binding Buffer A, 30% IMAP Progressive Binding Buffer B, 1:600 Progressive Binding Reagent, and 1:400 TR-FRET Tb Donor (Molecular Devices). The assay plates were then incubated overnight at room temperature and read on the Perkin-Elmer Envision Reader.
(In general: In TR-FRET formats the signal depends on donor and acceptor labels being close together.)

T1 sequence (Q04759 whole entry): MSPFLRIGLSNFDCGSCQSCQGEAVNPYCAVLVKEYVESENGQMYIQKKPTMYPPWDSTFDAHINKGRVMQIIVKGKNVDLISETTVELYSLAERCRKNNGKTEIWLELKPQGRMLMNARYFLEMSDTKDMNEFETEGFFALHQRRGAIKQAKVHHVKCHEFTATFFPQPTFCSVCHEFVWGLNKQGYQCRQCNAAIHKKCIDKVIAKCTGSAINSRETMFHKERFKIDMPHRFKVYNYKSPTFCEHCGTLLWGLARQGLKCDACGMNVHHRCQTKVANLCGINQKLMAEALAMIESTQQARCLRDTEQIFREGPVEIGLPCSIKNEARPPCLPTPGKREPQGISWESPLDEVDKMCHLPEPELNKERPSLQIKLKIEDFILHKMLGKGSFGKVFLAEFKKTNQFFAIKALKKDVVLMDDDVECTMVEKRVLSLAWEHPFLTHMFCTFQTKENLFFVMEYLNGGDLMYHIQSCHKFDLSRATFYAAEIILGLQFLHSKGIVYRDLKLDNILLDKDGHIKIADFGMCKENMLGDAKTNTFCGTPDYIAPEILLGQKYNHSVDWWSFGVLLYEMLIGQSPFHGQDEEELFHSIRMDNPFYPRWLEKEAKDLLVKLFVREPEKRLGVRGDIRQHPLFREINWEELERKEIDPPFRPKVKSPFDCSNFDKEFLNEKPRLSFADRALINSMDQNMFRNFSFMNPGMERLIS
T2 sequence (Q05655 whole entry): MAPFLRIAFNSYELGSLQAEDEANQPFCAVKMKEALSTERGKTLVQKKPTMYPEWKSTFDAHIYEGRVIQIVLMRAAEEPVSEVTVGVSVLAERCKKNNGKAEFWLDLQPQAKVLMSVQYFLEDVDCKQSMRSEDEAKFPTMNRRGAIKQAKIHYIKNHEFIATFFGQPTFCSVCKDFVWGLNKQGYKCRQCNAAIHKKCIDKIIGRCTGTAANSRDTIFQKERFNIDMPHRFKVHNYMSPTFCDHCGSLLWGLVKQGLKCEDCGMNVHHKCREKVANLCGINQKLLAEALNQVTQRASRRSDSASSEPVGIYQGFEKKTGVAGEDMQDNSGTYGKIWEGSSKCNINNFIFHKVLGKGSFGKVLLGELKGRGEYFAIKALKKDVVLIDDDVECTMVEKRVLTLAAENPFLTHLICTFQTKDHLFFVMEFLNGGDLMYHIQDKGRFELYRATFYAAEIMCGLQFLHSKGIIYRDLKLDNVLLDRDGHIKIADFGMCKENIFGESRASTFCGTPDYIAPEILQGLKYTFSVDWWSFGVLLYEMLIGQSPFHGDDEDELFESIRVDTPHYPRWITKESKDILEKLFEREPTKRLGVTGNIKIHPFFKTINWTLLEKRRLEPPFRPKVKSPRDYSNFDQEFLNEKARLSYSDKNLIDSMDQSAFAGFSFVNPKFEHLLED

With `CC(F)(F)COc1ncncc1CNc1ncc(C#N)c(N[C@@H]2C[C@](C)(O)C2(C)C)n1` [Cmpd 333], on His-PKC-theta, the concentration for half-maximal inhibition (IC50) is < 0.1 µM. For the same compound, on PKC delta, the “Sel. Level (ratio of IC50 PKC-delta/IC50 PKC-theta)” value is “E (selectivity (Sel. Level=ratio of IC50 PKC-delta/IC50 PKC-theta) of >100-fold (selectivity level E))”.
For `CCOc1cc(CCNc2ncc(C#N)c(N[C@H]3CC[C@@H](O)CC3)n2)ccn1` [Cmpd 328], in that order: 2 to 10 µM and “H (selectivity level of 5-fold or less (selectivity level H))”.
Take `CC1(C)C[C@H](Nc2nc(NCCc3cn[nH]c3)ncc2C#N)CC[C@@H]1O` [Cmpd 208]: the IC50 on His-PKC-theta was in the range of 0.1 to 0.8 µM. On PKC delta, the “Sel. Level (ratio of IC50 PKC-delta/IC50 PKC-theta)” value is “G (selectivity between 5- and 20-fold (selectivity level G))”.
As to `CC1(C)[C@H](O)CCC[C@H]1Nc1nc(NCCC2C(=O)Nc3cc(F)ccc32)ncc1C#N` (some centres unmarked) [Cmpd 310], on His-PKC-theta, the IC50 is 0.8 to 2 µM. On PKC delta, the “Sel. Level (ratio of IC50 PKC-delta/IC50 PKC-theta)” value is “H (selectivity level of 5-fold or less (selectivity level H))”.
Turning to `CC1(C)[C@@H](O)C[C@H]1Nc1nc(NCCc2cn[nH]c2)ncc1C#N` [Cmpd 244], on His-PKC-theta, the concentration for half-maximal inhibition (IC50) was in the range of 0.1 to 0.8 µM. For the same compound, the “Sel. Level (ratio of IC50 PKC-delta/IC50 PKC-theta)” value at PKC delta is “G (selectivity between 5- and 20-fold (selectivity level G))”.
Consider `CC(F)(F)COc1ncncc1CNc1ncc(C#N)c(N[C@H]2CCC[C@H](O)C2(C)C)n1` [Cmpd 296], for which the 50% inhibitory concentration (IC50) at His-PKC-theta lay in the range of 0.1 to 0.8 µM. On PKC delta, the “Sel. Level (ratio of IC50 PKC-delta/IC50 PKC-theta)” value was “F (selectivity of between 20- and 100-fold (selectivity level F))”.
In the case of `CC1(C)C[C@H](Nc2nc(NCCc3c[nH]c4cnccc34)ncc2C#N)CC[C@@H]1O` [Cmpd 283], the IC50 on His-PKC-theta was in the range of 0.1 to 0.8 µM. Further, the “Sel. Level (ratio of IC50 PKC-delta/IC50 PKC-theta)” value on PKC delta was “F (selectivity of between 20- and 100-fold (selectivity level F))”.
For `CC1(C)[C@H](O)CCC[C@H]1Nc1nc(NCCC2C(=O)Nc3ccc(F)cc32)ncc1C#N` (some centres unmarked) [Cmpd 314], on His-PKC-theta, the IC50 is 0.1 to 0.8 µM. Further, the “Sel. Level (ratio of IC50 PKC-delta/IC50 PKC-theta)” value on PKC delta is on record as “H (selectivity level of 5-fold or less (selectivity level H))”.
For `CC1(C)[C@H](O)CCC[C@H]1Nc1nc(NCCC2C(=O)Nc3ccccc32)ncc1C#N` (some centres unmarked) [Cmpd 306] the same measures were 0.1 to 0.8 µM and “H (selectivity level of 5-fold or less (selectivity level H))”.
For `CNS(=O)(=O)Cc1ccc2[nH]cc(CCNc3ncc(C#N)c(N[C@@H]4C[C@H](O)C4(C)C)n3)c2c1` [Cmpd 266] the same measures were 2 to 10 µM and “H (selectivity level of 5-fold or less (selectivity level H))”.
`CC1(C)[C@@H](O)C[C@H]1Nc1nc(NCCc2cncc(C(F)(F)F)c2)ncc1C#N` [Cmpd 274]: on His-PKC-theta, the concentration for half-maximal inhibition (IC50) is 0.8 to 2 µM. Further, at PKC delta, the “Sel. Level (ratio of IC50 PKC-delta/IC50 PKC-theta)” value was “G (selectivity between 5- and 20-fold (selectivity level G))”.
For `CC1(C)C[C@H](Nc2nc(NCCc3c[nH]c4cc(F)ccc34)ncc2C#N)CC[C@@H]1O` [Cmpd 252], the IC50 at His-PKC-theta is < 0.1 µM. Moreover, at PKC delta, the “Sel. Level (ratio of IC50 PKC-delta/IC50 PKC-theta)” value is reported as “E (selectivity (Sel. Level=ratio of IC50 PKC-delta/IC50 PKC-theta) of >100-fold (selectivity level E))”.
For `CC1(C)C[C@H](Nc2nc(NCC[C@]3(C)C(=O)Nc4ccccc43)ncc2C#N)CC[C@@H]1O` [Cmpd 303] the same measures were 2 to 10 µM and “H (selectivity level of 5-fold or less (selectivity level H))”.
Consider `CC1(C)[C@@H](O)C[C@H]1Nc1nc(NCCc2ccnc(C(F)(F)F)c2)ncc1C#N` [Cmpd 273], for which, on His-PKC-theta, the concentration for half-maximal inhibition (IC50) fell in the range of 0.8 to 2 µM. Moreover, the “Sel. Level (ratio of IC50 PKC-delta/IC50 PKC-theta)” value on PKC delta was “G (selectivity between 5- and 20-fold (selectivity level G))”.
`CC1(C)[C@@H](Nc2nc(NCCC3C(=O)Nc4ccccc43)ncc2C#N)CCC[C@@H]1O` (some centres unmarked) [Cmpd 305]: on His-PKC-theta, the concentration for half-maximal inhibition (IC50) was 0.1 to 0.8 µM. For the same compound, the “Sel. Level (ratio of IC50 PKC-delta/IC50 PKC-theta)” value on PKC delta is “G (selectivity between 5- and 20-fold (selectivity level G))”.
Consider `CC1(C)C[C@H](Nc2nc(NCCn3cncn3)ncc2C#N)CC[C@@H]1O` [Cmpd 223], for which the 50% inhibitory concentration (IC50) at His-PKC-theta was in the range of 2 to 10 µM. The “Sel. Level (ratio of IC50 PKC-delta/IC50 PKC-theta)” value on PKC delta is “H (selectivity level of 5-fold or less (selectivity level H))”.

Broadly, the IC50 is the concentration needed to halve the response being measured.
